Where two headings read alike, the source gives them in different places.
Assays:
[1] = tested on: collagen matrix of bovine nasal cartilage plugs; experiment: Cartilage plug degradation in vivo (cartilage plug implant assay); details: female Lewis rats, implanted bovine nasal cartilage plugs, hydroxyproline content vs vehicle, 8 or 9 days
[2] = tested on: collagen matrix of cartilage explants; experiment: Degradation of cartilage plug in vitro (hydroxyproline release); type: cell-based; details: bovine knee cartilage explants, IL-1-α 20 ng/ml, compounds at 10 to 300 nm, 21 days, hydroxyproline content vs control
Protocol: The ability of the compounds of this invention to inhibit the degradation of the collagen matrix (as judged by release of hydroxyproline) was determined by the cartilage plug degradation assay in vitro by following a slight modification of the method described in Spirito, S., Doughty, E., et al., "Metalloproteinase inhibitors halt collagen breakdown in IL-1 induced bovine nasal cartilage cultures" Inflamm. Res., 44, Supp. 2: S131-S132, (1995).
Cartilage explants prepared from freshly sacrificed bovine knee joints were added to the culture medium (Dubelco's modified eagle medium, Gibco #21063-001, Gibco BRL Products, Gaithersburg, Md.), without phenol red, but with HEPES, and L-glutamine and fungizone 2.5 μglml, gentamicin 50 μg/ml, penicillin 100 U/ml, and streptomycin 100 μg/ml). The cultures were stimulated with IL-1-α at a final concentration of 20 ng/ml. Compounds of Formula (I), were added at concentrations between 10 and 300 nm in DMSO. The control samples contained only IL-1-α. The cultures were incubated at 37° C. in an atmosphere of air with 6% CO2 for 21 days during which time the medium was changed twice/week. The cartilage plugs were removed, hydrolyzed and the hydroxyproline content was determined. The MMP inhibitory activity of test materials is the measure of the hydroxyproline content in the test group relative to the vehicle treated group (control group).

[3] = biological target: Collagenase-III; experiment: MMP enzymatic assay, hydrolysis of MCA-Pro-Leu-Gly-Leu-DPA-Ala-Arg-NH2, Collagenase-III; type: biochemical; details: 37° C., pH 7.5, 2.5% DMSO
Protocol: The propeptide and catalytic domain portion of human collagenase-3 was expressed in E. Coli as an N-terminal fusion protein with ubiquitin. After purification, the catalytic domain was released by treatment with 1 mM APMA for 1 hour at 37° C., and then purified by zinc chelate chromatography.
Rat collagenase-3 was purified in active form from the culture media of uterine smooth muscle cells as described in Roswit, W. T. et al., Arch. Biochem. Biophys., 225, 285-295 (1983).
The matrix metalloprotease inhibitory activity of compounds of this invention in vitro was determined based on the hydrolysis of MCA-Pro-Leu-Gly-Leu-DPA-Ala-Arg-NH2 (Bachem, Inc.) at 37° C. as described in Knight, C. G., et al., FEBS Lett., 296, 263-266 (1992).
The matrix metalloprotease enzyme was diluted with assay buffer (50 mM Tricine pH 7.5, 200 mM NaCl, 10 mM CaCl2, and 0.005% Brij-35) containing 10 μmole of above substrate dissolved in DMSO. Compounds of the invention dissolved in DMSO or only DMSO (control samples) were added such that the final DMSO concentration in all assays was 2.5%. The fluorescence changes were monitored with a Perkin-Elmer LS-50B flourimeter using an excitation wavelength of 328 nm and an emission wavelength of 393 nm.

[4] = tested on: TNF-α release from Human Monomac 6 cells; experiment: Inhibition of TNF release in vitro, Monomac 6 cells, LPS/PMA; type: cell-based; details: 2 h; for inhibition at 10 µM: MONO-MAC-6, 10 μM, read-out: TNF-α % inhibition, Conc. 10 μM; for inhibition at 2 µM: MONO-MAC-6, 2 μM, read-out: TNF-α % inhibition, Conc. 2 μM
Protocol: The activity of compounds of this invention in inhibiting the TNF release was determined, using the a minor modification of the method described in Pradines-Figueres, A. and Raetz, C. R. H., J. Biol. Chem., 267 (32), 23261, (1992).
Human Monomac 6 cells (Ziegler-Heitbrock, H. W. L., et al., Int. J. Cancer, 41, 456, (1988)) were cultured at 37° C. in RPMI 1640 medium containing 10% fetal calf serum to a density of 1×10^5 cells/ml. 0.23 ml of these cells were placed in each well of a tissue culture plate and the cells were incubated for 15 min. The test compounds were dissolved in above mentioned medium and added and the incubation was continued for an additional 15 min. 10 μl of an lipopolysaccharide/phorbol-12-myristate-13-acetate (LPS/PMA) mixture was added such that the final concentration of lipopolysaccharide was 10 ng/ml and the final concentration of phorbol-12-myristate-13-acetate was 30 ng/ml. The cells were incubated for 2 h after which the plate was centrifuged and the medium was removed and analyzed for TNF content. The analysis was performed using a TNF Quantikine® Inmunoassay (R & D Systems, Minneapolis, Minn. 55413) by following the manufacturer's protocol.
The TNF-α inhibitory activity of test materials, i.e., the measure of the TNF-α content in the test group relative to the vehicle treated group (control group) was: […]

[5] = tested on: TNF-α; experiment: Inhibition of LPS induced TNF-α production in mice in vivo; details: s.c. compound, LPS 50 μg/mouse i.p. 1 h later, blood after 1.5 h
Protocol: The activity of compounds of this invention in inhibiting the TNF-α release was determined, using a minor modification of the methods described in Zanetti, G.; Heumann, D., et. al., "Cytokine production after intravenous or peritoneal Gram-negative bacterial challenge in mice" J. Immunol., 148, 1890, (1992) and Sekut, L., Menius, J. A., et. al., "Evaluation if the significance of elevated levels of systemic and localized tumor necrosis factor in different animal models of inflammation" J. Lab. Clin. Med., 124, 813, (1994).
Female Balbic mice were anesthetized and injected subcutaneously with the test compounds dissolved in CMC vehicle or hydroxypropylmethyl cellulose based vehicle. Control animals received only the vehicle. After 1 h, LPS (50 μg/mouse, Sigma #13129, Sigma Chemical Co., St. Louis, Mo.) was injected intraperitoneally. After 1.5 h, blood was collected from the retro-rbital plexus region of the animals in a miicrotainer serum separator tube (Becton Dickinson, Cat. No. #5960, Becton Dickinson & Co., Franklin Lakes, N.J.). The sera was separated and the amount of TNF-α was determined using the EM-TNFA® kit (Endogen, Woburn, Mass.) by following the manufacturer's protocol.

[6] = biological target: T1, Collagenase-I (Homo sapiens, UniProt P03956); experiment: MMP enzymatic assay, hydrolysis of MCA-Pro-Leu-Gly-Leu-DPA-Ala-Arg-NH2, Collagenase-I; type: biochemical
T1 construct: the collagenase-1 catalytic domain was released by treatment with 1 mM of aninophenylmercuric acetate; ubiquitin (cleaved yes); made in house; host or cells: E. coli
T1 sequence (P03956 100-269 limits assumed): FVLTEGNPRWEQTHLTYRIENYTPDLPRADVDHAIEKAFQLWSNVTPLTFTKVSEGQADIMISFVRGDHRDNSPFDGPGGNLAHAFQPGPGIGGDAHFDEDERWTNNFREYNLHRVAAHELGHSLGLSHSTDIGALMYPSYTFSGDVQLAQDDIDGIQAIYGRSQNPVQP

[7] = 37° C., pH 7.5, 2.5% DMSO; read-out: Collagenase-I IC50

Structure (SMILES) | % protection [1] | % protection [2] | IC50 [3] | TNF-α % inhibition [5] | inhibition at 2 µM [4] | also measured
CC(C)[C@@H](NS(=O)(=O)N1CCN(c2ccc(Cl)cc2)CC1)C(=O)NO [compound 51, N-hydroxy-2-(R)-{[4-(4-chlorophenyl)piperazine-1-sulfonyl]amino}-3-methylbutyramide] | 45% | 35% | 2.6 nM |  |  | 
CC(C)[C@@H](NS(=O)(=O)N1CCN(c2ccc(Cl)cn2)CC1)C(=O)NO [compound 50, N-hydroxy-2-(R)-{[4-(5-chloropyridin-2-yl)piperazine-1-sulfonyl]amino}-3-methylbutyramide] | 70% | 71% | 1.3 nM |  |  | inhibition at 10 µM [4]: < 15%
CN(C)C(=O)N1CCN(S(=O)(=O)N2CCC(c3c[nH]c4c(F)c(F)c(F)c(F)c34)CC2)[C@@H](C(=O)NO)C1 [compound 309, N-hydroxy-4-(N,N-dimethylaminocarbonyl)-1-[4-(4,5,6,7-tetrafluoroindol-3-yl)piperidine-1-sulfonyl]piperazine-2-(R)-carboxamide] |  |  | 500 nM | 46% | 94% | 
O=C(c1ccc(Cl)cc1)C1CCN(S(=O)(=O)N2CCCC[C@@H]2C(=O)NO)CC1 [compound 242, N-hydroxy-1-[4-(4-chlorobenzoyl)piperidine-1-sulfonyl]piperidine-2-(R)-carboxamide] |  | 27% | 0.063 nM |  |  | inhibition at 10 µM [4]: 85%
O=CN1CCN(S(=O)(=O)N2CCC(C(=O)c3ccc(Cl)cc3)CC2)C(C(=O)NO)C1 (racemic) [compound 262, N-hydroxy-1-[4-(4-chlorobenzoyl)piperidine-1-sulfonyl]-4-formylpiperazine-2-(RS)-carboxamide] |  |  | 0.13 nM | 50% | 90% | 
CC(C)[C@@H](NS(=O)(=O)N1CCC(Oc2ccc(Cl)cc2)CC1)C(=O)NO [compound 59, N-hydroxy-2-(R)-{[4-(4-chlorophenoxy)piperidine-1-sulfonyl]amino}-3-methylbutyramide] | 58% | 54% | 0.18 nM |  |  | 
O=C(NO)[C@H](CSc1ccccc1)NS(=O)(=O)N1CCN(c2ccc(Cl)cn2)CC1 [compound 106, N-hydroxy-2-(R)-{[4-(5-chloropyridin-2-yl)piperazine-1-sulfonyl]amino}-3-(phenylthio)propionamide] |  |  |  |  |  | inhibition at 10 µM [4]: 41%; IC50 [6, 7]: 223 nM
CC(C)[C@@H](NS(=O)(=O)N1CCN(c2ccc(C(F)(F)F)cn2)CC1)C(=O)NO [compound 60] |  | 89% |  |  |  | 
CC(C)[C@@H](NS(=O)(=O)N1CCN(c2ccc(OCc3ccncc3)cc2)CC1)C(=O)O [compound 413, 2-(R)-{[4-(pyridin-4-ylmethyloxyphenyl)piperazine-1-sulfonyl]amino}-3-methylbutyric acid] |  |  |  |  |  | IC50 ([6]; read-out: Collagenase-I IC50; 37° C., pH 7.5, 2.5% DMSO): 9300 nM
O=C(c1ccc(Cl)cc1)C1CCN(S(=O)(=O)N2CCN(C(=O)c3cnccn3)C[C@@H]2C(=O)NO)CC1 [compound 319, N-hydroxy-1-[4-(4-chlorobenzoyl)piperidine-1-sulfonyl]-4-(1,4-pyrazin-2-yl-carbonyl)-piperazine-2-(R)-carboxamide] |  |  |  | 50% | 81% | 
CC(C)[C@@H](NS(=O)(=O)N1CCN(c2ccc(OCc3ccccc3)cc2)CC1)C(=O)NO [compound 74, N-hydroxy-2-(R)-{[4-(4-benzyloxyphenyl)piperazine-1-sulfonyl]amino}-3-methylbutyramide] | 46% |  | 0.73 nM |  |  | 
N#Cc1ccc2[nH]cc(C3CCN(S(=O)(=O)N4CCCC[C@@H]4C(=O)NO)CC3)c2c1 [compound 294, N-hydroxy-1-[4-(5-cyanoindol-3-yl)piperidine-1-sulfonyl]piperidine-2-(R)-carboxamide] |  |  | 340 nM | 90% | 97% | 
CC(C)[C@@H](NS(=O)(=O)N1CCC(Oc2ccc(F)cc2)CC1)C(=O)NO [compound 179, N-hydroxy-2-(R)-{[4-(4-fluorophenoxy)piperidine-1-sulfonyl]amino}-3-methylbutyramide] | 63% |  | 0.073 nM |  |  | inhibition at 10 µM [4]: < 15%
O=C(NO)[C@H]1CCCCN1S(=O)(=O)N1CCC(c2c[nH]c3c(F)c(F)c(F)c(F)c23)CC1 [compound 299, N-hydroxy-1-[4-(4,5,6,7-tetrafluoroindol-3-yl)piperdine-1-sulfonyl]piperidine-2-(R)-carboxamide] |  |  | 410 nM | 52% | 90% | IC50 [6, 7]: > 50000 nM
CC(C)[C@@H](NS(=O)(=O)N1CCC(Oc2ccc(Cl)cn2)CC1)C(=O)NO [compound 100, N-hydroxy-2-(R)-{[4-(5-chloropyridin-2-yloxy)piperidine-1-sulfonyl]amino}-3-methybutyramide] | 40% | 68% |  |  |  | 
